Laboratory results from US11806328B2, “Metabolic therapy for wound healing” (University of South Florida, priority 2013, dated 2023).

Experiments:
[1] = test system: Primary human dermal fibroblasts (HDFs); test: ROS production (DHE cytosolic, MitoSOX Red mitochondrial) in stressed primary human dermal fibroblasts; format: cell-based; settings: for decrease of cytosolic ROS production (DHE) / reduction of mitochondrial ROS production (MitoSOX Red): 5 mM BHB 72 hours, then 100 μM tert-butyl-hydrogen peroxide 3 hrs
Procedure: Primary human dermal fibroblasts (HDFs, passaged 2-8) from young and aged donors (24 to 88 years) were incubated in the absence or presence of BHB for 72 hours prior to stress with 100 μM tert-buytl-hydrogen peroxide for 3 hours. ROS production was measured fluorescently with dihydroethidium (DHE, cytosolic) and MitoSOX Red (mitochondrial) in triplicate, N=6. In the cytosol, aged HDFs produced 28% (p=<0.001)) more ROS basally compared to their young counterparts. When incubated in BHB for 72 hours, ROS production in the young HDFs decreased by 40% (p=<0.0001) and by 41% (p=<0.0001) in the aged. In the mitochondria, aged HDFs produced 27% (p=<0.0001) more ROS at baseline than the young HDFs, consistent with observations in cytosol. […] As such, ketone supplementation is useful against redox stress and augments wound healing, shifting redox homeostasis in HDFs, especially in the elderly. Primary human dermal fibroblasts (HDFs, passaged 2-8) from young and aged donors (24 to 88 years) were incubated in the absence or presence of 5 mM beta-hydroxybutyrate (BHB) for 72 hours. To simulate a wound environment, the cells were then stressed with 100 μM tert-butyl-hydrogen peroxide for 3 hrs. ROS production was measured fluorescently with dihydroethidium (DHE, cytosolic) and Mitosox Red (mitochondrial) in triplicate, N=6. In the cytosol, seen in FIG. 2(A), aged HDFs produced 25% (p=0.003) more ROS basally compared to their young counterparts. This is consistent with the knowledge that aged cells have less antioxidants to mitigate the ROS production in a stressed environment. When incubated in 5 mM BHB for 72 hours, young HDFs ROS production decreased by 40% (p=<0.0001) and aged ROS production decreased by 41% (p=<0.0001). […] When incubated in BHB, ROS production was reduced in the young by 29% (p<0.0001) and in the aged by 51% (p<0.0001) compared to the controls. […] Significance calculated using one-way ANOVA and t-tests on Prism 6 software.

[2] = test system: Young and aged HDFs; test: scratch migration assay; format: cell-based, human; settings: for migrated cells (Dapi staining) versus untreated control: 5 mM BHB 72 hours, 18 hours after scratch
Procedure: Young and aged HDFs were grown to confluence in 0.2% FBS 5 mM glucose DMEM media, cells were treated with or without the presence of 5 mM BHB for 72 hours, cells were scratched with 200 uL yellow pipette tip. After 18 hours, migrated cells were counted using Dapi staining.

[3] = test system: HDFs; test: proliferation of HDFs; format: cell-based, human

## CC(O)CC(=O)O (stereo not drawn) [BHB, beta-hydroxybutyrate]
[1]; aged HDFs
  decrease of cytosolic ROS production (DHE): 41%
  reduction of mitochondrial ROS production (MitoSOX Red): 51%
[1]; young HDFs
  decrease of cytosolic ROS production (DHE): 40%
  reduction of mitochondrial ROS production (MitoSOX Red): 29%
[1]; young and aged primary human dermal fibroblasts, in words
  cytosolic and mitochondrial ROS production: reduces cytosolic and mitochondrial ROS production
[2]; aged HDFs
  migrated cells (Dapi staining) versus untreated control: migrated significantly more
[2]; both young and aged HDFs, in words
  migration: did increase migration
[2]; young HDFs
  migrated cells (Dapi staining) versus untreated control: migrated significantly more
[3]
  proliferation: did not significantly change proliferation
